Measurements reported in US20220259551A1, “METHODS OF OPTIMIZED EUGLENA FERMENTATION USING ENGINEERED TANK DESIGN” (NOBLEGEN INC., priority 2019, published 2022).

System: Euglena gracilis Z
Experiment: Effect of organic acids, with or without glucose, on Euglena growth in shake flasks (Example 9)
Type: cell-based
Conditions: for % Increase in biomass between 48 h and 120 h / Net change in biomass: higher levels of acids (~2-5 g/L) solely or with glucose (~15 g/L); for higher acid contribution to biomass when fed along with glucose vs maximum acid alone contribution: higher acid concentrations (2-5 g/L); for higher acid contribution to biomass when fed along with glucose vs maximum acid alone contribution / further improvement in net biomass concentration compared to 48 h: end of 120 h; for higher biomass compared to control (glucose alone): higher levels of acids (~2-5 g/L) + glucose ~15 g/L; for higher biomass compared to control (glucose alone) / higher biomass compared to glucose alone (control) / net biomass: end of 48 h; for higher biomass compared to glucose alone (control): lower acid supplementation (~0.0005-0.05 g/L) + glucose 15 g/L
[1] = no glucose, acid conc. 0.05 g/L, 48 h
[2] = fumaric acid 0.0005 g/L + glucose 15 g/L, 48 h
[3] = lactic acid 0.05 g/L + glucose 15 g/L, 48 h

Structure (SMILES)	% Increase in biomass between 48 h and 120 h [%]	Net change in biomass (incubation 48 h) [g/L]	Net change in biomass (incubation 120 h) [g/L]	Net biomass conc. (48 h) [1] [g/L]	higher acid contribution to biomass when fed along with glucose vs maximum acid alone contribution [%]	higher biomass compared to control (glucose alone) [%]	net biomass (~5 g/L as sole carbon source) [g/L]	other results
O=C(O)/C=C/C(=O)O [Fumaric acid only]	4.8	2.10	2.20					Net biomass conc. (48 h) (no glucose, acid conc. 0.0005 g/L, 48 h): 0.70 g/L
O=C[C@H](O)[C@@H](O)[C@H](O)[C@H](O)CO [Glucose (Control)]	0.0	6.50	6.50					Net biomass conc. (48 h) (Glucose conc. 15 g/L, no acid, 48 h): 6.70 g/L
CC(O)C(=O)O (stereo not drawn) [Lactic acid only]	9.5	2.10	2.30	0.60				
O=C(O)CC(O)C(=O)O (stereo not drawn) [Malic acid only]	−7.1	1.40	1.30	0.60				
CC(=O)C(=O)O [Pyruvate only]	−11.1	0.90	0.80	1.00				
O=C(O)CCC(=O)O [Succinic acid only]	13.6	2.20	2.50	0.70				
O=C(O)/C=C/C(=O)O [fumaric acid]					46.67	12.3	2.10	conversion efficiency (15 g/L glucose and 2 g/L fumaric acid, 120 h): 57.4%; conversion efficiency (15 g/L glucose and 5 g/L fumaric acid, 120 h): 58.41%; biomass yield (g)/g of carbon, higher than glucose alone [2]: 8.4%; higher conversion efficiency compared to glucose alone (15 g/L) [2]: 21.9%; maximum biomass obtained (fumaric acid 2 g/L and 5 g/L): ~1.5 g/L; higher biomass compared to glucose alone (control): 7.5%
CC(O)C(=O)O (stereo not drawn) [lactic acid]					5.56	1.5	2.10	biomass yield (g)/g of carbon [3]: 1.35 g/g of carbon; biomass yield (g)/g of carbon, higher than the control [3]: ~13%; conversion efficiency [3]: 54.8%; conversion efficiency, higher than the glucose control [3]: ~8%; higher biomass compared to glucose alone (control): 13.4%; further improvement in net biomass concentration compared to 48 h (~5 g/L as sole carbon source): 9.5%
O=C(O)CC(O)C(=O)O (stereo not drawn) [malic acid]					63.64	4.6	1.40	higher biomass compared to glucose alone (control): −3%
CC(=O)C(=O)O [pyruvate, pyruvic acid]					72.73			net biomass (~2 g/L as sole carbon source): 0.90 g/L
O=C(O)CCC(=O)O [succinate, succinic acid]						3.1	2.20	further improvement in net biomass concentration compared to 48 h (~5 g/L as sole carbon source): 13.6%
